This note sets out measurements from US12070465B2, “Compositions and methods for the prevention and treatment of hearing loss” (Ting Therapeutics LLC, priority 2020, dated 2024).

The test system of data set [1] is zebrafish neuromast hair cells. Briefly: Zebrafish model for excitotoxicity (kainic acid induced hair cell death). Type of data set: in vivo. Conditions: for performance compared with Piperlongumine against kainic acid (KA) induced hair cell death: KA 300 μM 1 hour, then derivative 2 hours at 1 nM to 100 μM, better at at least one dose. How it is done:
5dpf Tg(Brn3c:mGFP) larvae were used for the experiments. Zebrafish were pretreated with kainic acid for one hour (300 μM) to mimic the excitotoxic damage induced by noise exposure, and then, post-treated with Piperlongumine-25 for 2 hours (al concentrations of 0.001 μM; 0.1 μM; 10 μM; and 100 μM). Control animal were treated with DMSO (−) or Piperlongumine-25 alone (+). Animals were then fixed and immunostained for GFP. Quantification was done by assessing three neuromasts in the same anatomic location of each animal (n=5). The data is plotted as mean+SD. Statistical testing was done with One-way ANOVA and Dunnett post-hoc test (P<0.0001 compared to KA).
Subsequently, animals were transferred to E3 water for 5 hours and fixed in 4% paraformaldehyde (PFA) overnight. Neuromast HCs were immunolabeled with anti-otoferlin (HCS-1, DSHB) and anti-GFP (NB100-1614, Novus Biologicals). These two markers were used to detect and count neuromast HCs to reduce the chances of missing some of the HCs after the treatment since as it was previously noticed that incubation with the compounds can affect GFP expression more difficult to detect under a fluorescence microscope. Otic, middle, and opercular neuromasts were identified, and HCs at SO3 (supraorbital line neuromast) and O1-2 (Otic line neuromasts) were manually counted using a Zeiss AxioSkop 2 fluorescence microscope with a 40× oil objective. Control animals were treated with DMSO (−) or Neo or GM alone (+) Animals were then fixed and immunostained for GFP and otoferlin. Quantification was done by assessing three neuromasts in the same anatomic location of each animal (n=5). The data is plotted as mean+SD. Statistical testing was done with One-way ANOVA and Dunnett post-hoc test (*P<0.05, **P<0.01, ***P<0.001 compared to either Neo or GM, respectively). […] For the screening of piperlongumine derivatives for protection against noise-induced hearing loss we employed a zebrafish model that mimics excitotoxic damage. Five-day post-fertilization (dpf) Tg(brn3c:GFP) larvae were incubated with 300 μM of KA for 1 hour followed by piperlongumine-25 for 2 hours at 0.001 μM, 0.1 μM, 10 μM, and 100 μM. DMSO and KA were used as controls.
5 dpf fish were incubated with KA 300 μM for 1 hour followed by a two-hour incubation with one of the piperlongumine derivatives at 1 nM to 100 μM. Animals were fixed and immunostained for the hair cell marker, otoferlin. Neuromast hair cells were counted under a fluorescence microscope. At least 3 neuromast of the rostral lateral line were inspected per fish, in a total of 6 fish per treatment. Results are presented as mean+/−SD. Control, KA only, PG only, PG+KA, derivatives that were no protective against excitotoxicity, derivatives that performed better than PG.
5dpf fish were incubated with KA 300 μM for 1 hour followed by one of the PG derivatives at different concentrations for additional 2 hours. Animals were fixed and immunostained for otoferlin. Neuromast hair cells were quantified in at least 3 rostral neuromasts per fish in a total of 6 fish per treatment. Results are expressed as mean+/−SD. Statistical analysis: One-way ANOVA *P<0.05, **P<0.01, P<0.001 versus KA alone. These five Piperlongumine derivatives performed better than Piperlongumine at least one dose.

Data set [2] concerns zebrafish lateral line neuromast hair cells. Briefly: Zebrafish lateral line neuromast hair cell counts after aminoglycoside (neomycin or gentamycin). Conditions: 5 dpf larvae. It is filed as in vivo, Danio rerio. From the text: Now referring to FIGS. 5A-C,(E)-1-(3-(3,4,5-trimethoxyphenyl)acryloyl)-S,6-dihydropyridin-2(1H)-one (Piperlongumine) protects from aminoglycoside induced hair cell loss in zebrafish lateral line neuromasts in vivo. Zebrafish lateral line neuromast HC counts are commonly used in vivo models for screening otoprotectants. Danio rerio experimental larvae were obtained by pair mating of adult fish maintained at Creighton University by standard methods approved by the Institutional Animal Care and Use Committee. Fish used were Tg(pou4f3:mGFP) expressing a membrane bound GFP in HCs. […] The lateral-line neuromasts of zebrafish are a valuable system for testing protectivity of compounds against aminoglycoside toxicity in vivo, as their HCs are considered homologous to those in the mammalian inner ear and are readily accessible to drugs. […]
Subsequently, animals were transferred to E3 water for 5 hours and fixed in 4% paraformaldehyde (PFA) overnight. […] These two markers were used to detect and count neuromast HCs to reduce the chances of missing some of the HCs after the treatment since as it was previously noticed that incubation with the compounds can affect GFP expression more difficult to detect under a fluorescence microscope. […] Quantification was done by assessing three neuromasts in the same anatomic location of each animal (n=5). […]

Data set [3] concerns mouse embryonic fibroblast (MEFs). Briefly: MTT viability of mouse embryonic fibroblasts exposed to aminoglycosides. It is filed as cell-based. Conditions: 15 hours. How it is done: (§1) MEFs were incubated for 15 hours with neomycin (100 μM) or gentamicin (8 μM) with or without Piperlongumine (0.1 nM-5 μM). Cell viability was assessed employing MTT (3-(4-,5-dimethylthiazol-2-yl)-2,5-diphenyltetrazolium bromide) viability kit test (Thermo Fisher). The data is plotted as mean+SD. Statistical testing was done with One-way ANOVA and Dunnett post-hoc test (*P<0.05, **P<0.01 compared to either Neo or GM, respectively).
as §1, with “Now referring to FIG. 7 (E)-1-(3-(3,4,5-trimethoxyphenyl)acryloyl)-S,6-dihydropyridin-2(1H)-one protects mouse embryonic fibroblast (MEFs) against aminoglycosides. MEFs” for “MEFs”, “without(E)-1-(3-(3,4,5-trimethoxyphenyl)acryloyl)-S,6-dihydropyridin-2(1H)-one” for “without Piperlongumine”, “μM) at 0.1 nM, 0.5 nM, 1 nM, 5 nM, 10 nM, 50 nM, 100 nM, and 500 nM.” for “μM).”

The test system of data set [4] is C57BL/6 (Cdh23 corrected) mice. Briefly: ABR thresholds in kanamycin exposed mice. It is filed as in vivo, mouse. The note with it: at 22.6 kHz; 40 mg/kg b.w. once a day for 17 days IP; kanamycin 700 mg/kg twice a day for 14 days; p=0.0408. How it is done:
(§2) C57BI6 (Cdh23 corrected) (6-7 weeks old) were exposed to vehicle+kanamycin (Veh+Kan) (700 mg/kg b.w. twice a day for 14 days) (shown as circles with four breaks); or (E)-1-(3-(3,4,5-trimethoxyphenyl)acryloyl)-S,6-dihydropyridin-2(1H)-one+kanamycin (PLM+Kan) with (E)-1-(3-(3,4,5-trimethoxyphenyl)acryloyl)-S,6-dihydropyridin-2(1H)-one (40 mg/kg b.w. once a day for 17 days) (shown as circle no breaks). Age match controls are shown (age, shown as circle with three breaks). Auditory brainstem response (ABR) thresholds were recorded for frequencies (4 kHz, 5.6 kHz, 8 kHz, 16 kHz, 22.6 kHz, 32 kHz, 45.2 kHz, and 64 kHz) before and after treatment protocol. […] Statistical analysis was done with repeated measures ANOVA between groups.
Now referring to FIG. 8A, Piperlongumine protects from aminoglycoside toxicity in mice in vivo. 6-7-week-old C57BL/6 (Cdh23 corrected) were used, with a mix of males and females across experiments. […] Piperlongumine's protection against hearing impairment loss was assessed by measuring ABR threshold shifts in the mouse ear.
Animals were anesthetized with a mixture of ketamine/xylazine before ABR assessment. […] Evoked responses were amplified (20x), bandpass filtered (300-3,000 Hz) and average of 512 responses of 10 ms duration was recorded. […]

Data set [5] relates to C57BL/6 (Cdh23 corrected) mice. Briefly: General toxicity in mice over the 17-day treatment regimen. The note with it: 40 mg/kg b.w. for 17 days, with and without kanamycin. Type of data set: in vivo, mouse. How it is done:
as §2
Now referring to FIG. 8A, Piperlongumine protects from aminoglycoside toxicity in mice in vivo. 6-7-week-old C57BL/6 (Cdh23 corrected) were used, with a mix of males and females across experiments. Procedures were approved by the IACUC committee of the Creighton University.) Mice were treated with Piperlongumine (40 mg/kg b.w., for 17 days, IP) with or without kanamycin treatment (700 mg/kg b.w. for 14 days twice a day, s.q.). Piperlongumine's protection against hearing impairment loss was assessed by measuring ABR threshold shifts in the mouse ear.
Age-control group mice were administered saline. […] Data are presented as mean+SD, n=3-4/group.

With `O=C(/C=C/c1ccco1)N1CCC1=O` [PG3], in data set [1], the “performance compared with Piperlongumine against kainic acid (KA) induced hair cell death” value (“performance compared with Piperlongumine” for short) is on record as “better performance than Piperlongumine”.

Take `COc1cccc(/C=C/C(=O)N2CCCCC2=O)c1` [PG25]: in data set [1] (300 μM KA 1 hour, then compound 2 hours at 0.001 μM, 0.1 μM, 10 μM, 100 μM), the “protection of neuromast hair cells from excitotoxic damage induced by kainic acid” value is “protects neuromast hair cells from excitotoxic damage”. Also, the “performance compared with Piperlongumine” value in data set [1] is on record as “better performance than Piperlongumine”.

In the case of `O=C(/C=C/c1ccccc1)N1CCC1=O` [PG 18], the “performance compared with Piperlongumine” value in data set [1] is “better performance than Piperlongumine”.

Regarding `O=C(/C=C/c1ccc2c(c1)OC(F)(F)O2)N1CCCCCC1=O` [PG 53], the “performance compared with Piperlongumine” value in data set [1] is listed as “better performance than Piperlongumine”.

Consider `O=C(/C=C/c1ccc2c(c1)OC(F)(F)O2)N1CCCCC1=O` [PG 54], for which, in data set [1], the “performance compared with Piperlongumine” value is “better performance than Piperlongumine”.

Take `COc1cc(/C=C/C(=O)N2CCC=CC2=O)cc(OC)c1OC` [Piperlongumine, (E)-1-(3-(3,4,5-trimethoxyphenyl)acryloyl)-S,6-dihydropyridin-2(1H)-one]: the “protection from gentamycin-induced hair cell death” value in data set [2] (1 hour pre-incubation then co-incubation with 100 μM gentamycin for 1 hour) is “protects zebrafish neuromasts from gentamycin-induced hair cell death”. For the same compound, the “protection from neomycin-induced hair cell death” value in data set [2] (1 hour pre-incubation then co-incubation with 200 μM Neomycin for 30 minutes) is recorded as “protects zebrafish neuromasts from neomycin-induced hair cell death”. For the same compound, the “protection of MEFs against gentamycin (cell viability, MTT)” value in data set [3] (gentamicin 8 μM, observed at 0.1 nM to 1 nM) came to 100%. In data set [3] (neomycin 100 μM, observed at 0.1 nM to 10 nM), the “protection of MEFs against neomycin (cell viability, MTT)” value came out at 100%. For the same compound, the “protection of ABR threshold against kanamycin” value in data set [4] is given as “significant protection”. Further, the general toxicity result in data set [5] is given as “not toxic”.
